# Experimental data as given in US4048299A, “Anticaries confectionaries and oral health products” (William Wrigley, Jr. Co., priority 1970, dated 1977).
# How the values were obtained:
# [1] = In vivo caries evaluation, Osborne-Mendel strain 1 rat; parameters: species or system rat (Osborne-Mendel strain 1); conditions: Table I, 90 days
# Text: (§1) Standard laboratory techniques were used to complie the data presented. In each case the aldehyde was incorporated into each specimen's food in a one percent, by weight, quantity, over a period of several weeks. In all cases, caries reduction was noted.
# (§2) The aldehydes tested in vivo were pyruvaldehyde, d,1-glyceraldehyde, crystalline dimer, glycolaldehyde, octanaldehyde, nonanaldehyde, decanaldehyde, undecylenic aldehyde, and lauric aldehyde. The polyaldehydes tested were dialdehyde starch, dialdehyde starch 50 percent oxidized, dialdehyde starch 90 percent oxidized, and dialdehyde galactomannan gum.
# ^(a) Agents were incorporated in the diet at a 1 percent level.
# [2] = test system: Lactobacillus casei ATCC 4646; test: Acid production inhibition by aldehydes in product vehicles, broth-tube technique; format: cell-based; conditions: 1 to 5 percent aldehyde
# [3] = test system: Mixed human oral microorganisms; test: as above; format: cell-based; conditions: 1 to 5 percent aldehyde
# [4] = test system: Streptococcus spp. KI-R; test: as above; format: cell-based; conditions: 1 to 5 percent aldehyde
# [5] = test system: Streptococcus spp. KI-R; test: Growth inhibition by aldehydes in product vehicles, pour-plate technique; format: cell-based; conditions: 1 to 5 percent aldehyde
# How it was run: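 Aldehydes (1 to 5 percent by weight) were formulated into syrups, candies, mouthwash, toothpaste or toothpowder, added directly or as aqueous extracts to medium without a carbon source mixed 1:1 with filter-sterilized human saliva. Sugar came from the product or added sucrose. Growth over up to 24 hours was read by pour-plate count.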
# [6] = In vivo caries evaluation, laboratory animals (summary); conditions: one percent level in diet
# Text: as §1, §2
# [7] = test system: Lactobacillus casei; test: Acid production inhibition, broth-tube technique; conditions: single agent
# Text: The data was compiled through well-known broth tube analysis techniques.
# (a)Measured by broth-tube technique.
# [8] = Student's test, 95 percent confidence limit
# [9] = in compressed candy tablet, 2 h incubation
# [10] = in compressed candy tablet, 5 h incubation
# [11] = in compressed candy tablet, 24 h incubation
# [12] = in dextrose syrup, 2 h incubation
# [13] = in dextrose syrup, 5 h incubation
# [14] = in dextrose syrup, 24 h incubation
# [15] = in sucrose syrup, 2 h incubation
# [16] = in sucrose syrup, 5 h incubation
# [17] = in sucrose syrup, 24 h incubation
# [18] = in tooth powder (aqueous extract), 2 h incubation
# [19] = in tooth powder (aqueous extract), 5 h incubation
# [20] = in tooth powder (aqueous extract), 24 h incubation
# [21] = in toothpaste (aqueous extract), 2 h incubation
# [22] = in toothpaste (aqueous extract), 5 h incubation
# [23] = in toothpaste (aqueous extract), 24 h incubation
smiles,measurement,setting,value
CC(=O)C=O [Pyruvaldehyde],"Caries Score, Mean Incidence","[1]; 1 percent in diet, RCD control 23.3 (pyruvaldehyde test), 12.85 (glycolaldehyde test)",8.6
same,"Caries Score, Mean Extent","[1]; 1 percent in diet, RCD control 64.8 (pyruvaldehyde test), 35.45 (glycolaldehyde test)",21.7
same,"Caries Extent Reduction, statistical evaluation",[1]; [8],Significant
same,"Caries Incidence Reduction, statistical evaluation",[1]; [8],Significant
same,Acid Production Inhibition,[2]; [9],0 Per Cent
same,Acid Production Inhibition,[2]; [10],0 Per Cent
same,Acid Production Inhibition,[2]; [11],75 Per Cent
same,Acid Production Inhibition,[2]; [12],52 Per Cent
same,Acid Production Inhibition,[2]; [13],33 Per Cent
same,Acid Production Inhibition,[2]; [14],88 Per Cent
same,Acid Production Inhibition,"[2]; in hard candy, 2 h incubation",0 Per Cent
same,Acid Production Inhibition,"[2]; in hard candy, 5 h incubation",22 Per Cent
same,Acid Production Inhibition,"[2]; in hard candy, 24 h incubation",90 Per Cent
same,Acid Production Inhibition,[2]; [15],0 Per cent
same,Acid Production Inhibition,[2]; [16],20.0 Per cent
same,Acid Production Inhibition,[2]; [17],89.6 Per cent
same,Acid Production Inhibition,[2]; [18],0 Per cent
same,Acid Production Inhibition,[2]; [19],0 Per cent
same,Acid Production Inhibition,[2]; [20],71 Per cent
same,Acid Production Inhibition,[2]; [21],0 Per cent
same,Acid Production Inhibition,[2]; [22],0 Per cent
same,Acid Production Inhibition,[2]; [23],0 Per cent
same,Acid Production Inhibition,[3]; [9],0 Per Cent
same,Acid Production Inhibition,[3]; [10],89 Per Cent
same,Acid Production Inhibition,[3]; [11],78 Per Cent
same,Acid Production Inhibition,[3]; [12],15 Per Cent
same,Acid Production Inhibition,[3]; [13],89 Per Cent
same,Acid Production Inhibition,[3]; [14],83 Per Cent
same,Acid Production Inhibition,"[3]; in hard candy, 2 h incubation",20 Per Cent
same,Acid Production Inhibition,"[3]; in hard candy, 5 h incubation",93 Per Cent
same,Acid Production Inhibition,"[3]; in hard candy, 24 h incubation",84 Per Cent
same,Acid Production Inhibition,"[3]; in mouthwash, 2 h incubation",0 Per cent
same,Acid Production Inhibition,"[3]; in mouthwash, 5 h incubation",94 Per cent
same,Acid Production Inhibition,"[3]; in mouthwash, 24 h incubation",87 Per cent
same,Acid Production Inhibition,[3]; [15],77.8 Per cent
same,Acid Production Inhibition,[3]; [16],92.1 Per cent
same,Acid Production Inhibition,[3]; [17],91.8 Per cent
same,Acid Production Inhibition,[3]; [18],0 Per cent
same,Acid Production Inhibition,[3]; [19],86 Per cent
same,Acid Production Inhibition,[3]; [20],80 Per cent
same,Acid Production Inhibition,[3]; [21],0 Per cent
same,Acid Production Inhibition,[3]; [22],0 Per cent
same,Acid Production Inhibition,[3]; [23],0 Per cent
same,Acid Production Inhibition,[4]; [9],0 Per Cent
same,Acid Production Inhibition,[4]; [10],30 Per Cent
same,Acid Production Inhibition,[4]; [11],83 Per Cent
same,Acid Production Inhibition,[4]; [12],57 Per Cent
same,Acid Production Inhibition,[4]; [13],86 Per Cent
same,Acid Production Inhibition,[4]; [14],82 Per Cent
same,Acid Production Inhibition,"[4]; in hard candy, 2 h incubation",40 Per Cent
same,Acid Production Inhibition,"[4]; in hard candy, 5 h incubation",87 Per Cent
same,Acid Production Inhibition,"[4]; in hard candy, 24 h incubation",86 Per Cent
same,Acid Production Inhibition,"[4]; in mouthwash, 2 h incubation",0 Per cent
same,Acid Production Inhibition,"[4]; in mouthwash, 5 h incubation",0 Per cent
same,Acid Production Inhibition,"[4]; in mouthwash, 24 h incubation",86 Per cent
same,Acid Production Inhibition,[4]; [15],37.5 Per cent
same,Acid Production Inhibition,[4]; [16],82.3 Per cent
same,Acid Production Inhibition,[4]; [17],86.4 Per cent
same,Acid Production Inhibition,[4]; [18],0 Per cent
same,Acid Production Inhibition,[4]; [19],0 Per cent
same,Acid Production Inhibition,[4]; [20],0 Per cent
same,Acid Production Inhibition,[4]; [21],0 Per cent
same,Acid Production Inhibition,[4]; [22],0 Per cent
same,Acid Production Inhibition,[4]; [23],0 Per cent
same,Growth Inhibition,[5]; [9],N.S.
same,Growth Inhibition,[5]; [10],N.S.
same,Growth Inhibition,[5]; [11],N.S.
same,Growth Inhibition,[5]; [12],100 Per Cent
same,Growth Inhibition,[5]; [13],100 Per Cent
same,Growth Inhibition,[5]; [14],100 Per Cent
same,Growth Inhibition,"[5]; in hard candy, 2 h incubation",> 99.99 Per Cent
same,Growth Inhibition,"[5]; in hard candy, 5 h incubation",> 99.99 Per Cent
same,Growth Inhibition,"[5]; in hard candy, 24 h incubation",100 Per Cent
same,Growth Inhibition,"[5]; in mouthwash, 2 h incubation",> 99.99 Per cent
same,Growth Inhibition,"[5]; in mouthwash, 5 h incubation",> 99.99 Per cent
same,Growth Inhibition,"[5]; in mouthwash, 24 h incubation",100 Per cent
same,Growth Inhibition,[5]; [15],> 99.9 Per cent
same,Growth Inhibition,[5]; [16],> 99.99 Per cent
same,Growth Inhibition,[5]; [17],100 Per cent
same,Growth Inhibition,[5]; [18],100 Per cent
same,Growth Inhibition,[5]; [19],100 Per cent
same,Growth Inhibition,[5]; [20],100 Per cent
same,Growth Inhibition,[5]; [21],N.S.
same,Growth Inhibition,[5]; [22],N.S.
same,Growth Inhibition,[5]; [23],N.S.
same,Anticaries effect in laboratory animals,[6],significant anticaries effects
same,Acid Production Inhibition,[7]; 0.005 percent,24%
same,Acid Production Inhibition,[7]; 0.0075 percent,57%
